Results as given in patent US10287272B2, “Substituted indazole compounds as RORgammaT inhibitors and uses thereof” (Merck Sharp & Dohme Corp., priority 2015, dated 2019).

What was measured:
CAR = CAR (Homo sapiens (Human), UniProt Q14994); experiment: Nuclear hormone receptor selectivity assay (GAL4-NHR-LBD luciferase, HEK293); format: cell-based
Method: (§1) In the assay system used, an activated GAL4-nuclear hormone receptor (NHR) fusion construct binds to an upstream activation sequence (UAS) and drives a luciferase reporter gene. […]
(§2) HEK293 cells were transfected with GAL4-NHR-LBD construct (pcDNA3.1neo) and the pGL4.31 GAL4-luciferase reporter construct (Promega) and incubated overnight at 37° C. and 5% CO2. After 16-24 hours, cells were harvested and plated at 20 μL (10,000 cells)/well in tissue-culture treated 384 well plate. […] Next, plates are spun briefly and incubated overnight at 37° C. and 5% CO2. […] In agonist mode, test compound was incubated directly with the cells. For receptors that are not constitutively active, a known agonist is also tested as a positive control.
(§3) After 16-24 hours, luciferase activity was measured. Plates and luciferase reagent (e.g. One-Glo® or Dual Glo®; Promega, Madison, Wis.) were brought to room temperature. Next, a 25 μL aliquot of luciferase reagent was added to each well. Plates were spun down briefly and incubated at room temperature for 10 minutes. The luciferase signal was measured on an Envision plate reader (Perkin Elmer) set to the ultra-sensitive luminescence setting.

FXR = FXR (Homo sapiens (Human), UniProt Q96RI1); experiment: as above; format: cell-based
Method: as §1, §2, §3

LXRα = LXRα (Homo sapiens (Human), UniProt Q13133); experiment: as above; format: cell-based
Method: as §1, §2, §3

LXRβ = LXRβ (Homo sapiens (Human), UniProt P55055); experiment: as above; format: cell-based
Method: as §1, §2, §3

PPARα = PPARα (Homo sapiens (Human), UniProt Q07869); experiment: as above; format: cell-based
Method: as §1, §2, §3

PPARβ = PPARβ (Homo sapiens (Human), UniProt Q03181); experiment: as above; format: cell-based
Method: as §1, §2, §3

PPARγ = PPARγ (Homo sapiens (Human), UniProt P37231); experiment: as above; format: cell-based
Method: as §1, §2, §3

PXR = PXR (Homo sapiens (Human), UniProt O75469); experiment: as above; format: cell-based; conditions: agonist mode
Method: as §1, §2, §3

RARα = RARα (Homo sapiens (Human), UniProt P10276); experiment: as above; format: cell-based
Method: as §1, §2, §3

RARβ = RARβ (Homo sapiens (Human), UniProt P10826); experiment: as above; format: cell-based
Method: as §1, §2, §3

RARγ = RARγ (Homo sapiens (Human), UniProt P13631); experiment: as above; format: cell-based
Method: as §1, §2, §3

RORα = RORα (Homo sapiens (Human), UniProt P35398); experiment: as above; format: cell-based; conditions: antagonist mode
Method: as §1, §2, §3

RORβ = RORβ (Homo sapiens (Human), UniProt Q92753); experiment: as above; format: cell-based; conditions: antagonist mode
Method: as §1, §2, §3

RXRα = RXRα (Homo sapiens (Human), UniProt P19793); experiment: as above; format: cell-based
Method: as §1, §2, §3

TRα = TRα (Homo sapiens (Human), UniProt P10827); experiment: as above; format: cell-based
Method: as §1, §2, §3

TRβ = TRβ (Homo sapiens (Human), UniProt P10828); experiment: as above; format: cell-based
Method: as §1, §2, §3

VDR = VDR (Homo sapiens (Human), UniProt P11473); experiment: as above; format: cell-based
Method: as §1, §2, §3

[1] = system: BclxL gene expression in murine thymus; experiment: Murine thymic BclxL gene expression assay; format: in vivo, mouse; conditions: female C57BL/6 mice, oral 0.1-30 mg/kg, thymus collected 2 hours after dosing, qPCR; FIG. 3
[2] = system: murine collagen-induced arthritis model; experiment: Murine collagen-induced arthritis model; format: in vivo, mouse; conditions: female DBA/1J mice, oral 3, 10 or 30 mg/kg twice daily; FIG. 4
Method: Female DBA/1J mice (Jackson Laboratories, 7-8 weeks old) were received and allowed to acclimate for about one week. On the day of immunization, an emulsion was freshly prepared by homogenizing equal volumes of Complete Freund's Adjuvant (CFA, Chondrex #7001) and a collagen type-2 solution (bovine source, Chondrex #20022) using a tissue homogenizer, on ice. A volume of 0.1 mL of this emulsion was injected subcutaneously into the base of the tail of each mouse, which was lightly anesthetized with isoflurane. Mice recovered from anesthesia were allowed food and water ad libitum.
Eighteen days after immunization, the mice were injected intraperitoneally with 40 μg of lipopolysaccaride (LPS, Sigma#L4005) in 0.2 mL saline, in order to help synchronize the disease progression in all animals. Seven days after LPS injection, the mice were assessed for knee joint swelling by measurement of each knee joint using digital calipers and computing total joint circumference. The total knee joint circumference of the 4 knee joints was then used to randomize mice into treatment groups of equal average circumference.
This dosing continued twice daily at 8- and 16-hour intervals for the duration of the study. As a positive control, one group of mice received 25 mg/kg Jak inhibitor (JAKi) tofacitinib once per day. Joints were measured 2-3 times per week.

[3] = antagonist mode, reference agonist at EC80

Chain of RXRα (P19793 227-458): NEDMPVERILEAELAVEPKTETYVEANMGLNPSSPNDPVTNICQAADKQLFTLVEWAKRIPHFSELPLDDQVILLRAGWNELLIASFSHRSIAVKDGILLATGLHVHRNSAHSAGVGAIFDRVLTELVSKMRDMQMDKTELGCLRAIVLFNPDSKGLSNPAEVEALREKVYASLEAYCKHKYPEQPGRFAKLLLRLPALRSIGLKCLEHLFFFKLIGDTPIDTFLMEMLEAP
Chain of TRα (P10827 other isoform, or with tags, fused parts or gaps isoform P10827-2): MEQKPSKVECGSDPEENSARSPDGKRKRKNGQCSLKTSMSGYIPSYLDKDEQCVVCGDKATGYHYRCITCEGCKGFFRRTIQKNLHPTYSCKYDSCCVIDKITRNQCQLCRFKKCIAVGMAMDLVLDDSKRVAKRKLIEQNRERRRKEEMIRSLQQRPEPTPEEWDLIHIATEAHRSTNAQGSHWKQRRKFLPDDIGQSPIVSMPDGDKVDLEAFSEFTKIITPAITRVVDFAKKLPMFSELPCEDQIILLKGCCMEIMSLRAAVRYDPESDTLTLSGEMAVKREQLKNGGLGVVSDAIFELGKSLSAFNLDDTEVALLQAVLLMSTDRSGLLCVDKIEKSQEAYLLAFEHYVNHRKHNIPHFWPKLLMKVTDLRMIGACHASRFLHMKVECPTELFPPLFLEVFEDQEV
Chain of RARγ (P13631 185-419, species assumed): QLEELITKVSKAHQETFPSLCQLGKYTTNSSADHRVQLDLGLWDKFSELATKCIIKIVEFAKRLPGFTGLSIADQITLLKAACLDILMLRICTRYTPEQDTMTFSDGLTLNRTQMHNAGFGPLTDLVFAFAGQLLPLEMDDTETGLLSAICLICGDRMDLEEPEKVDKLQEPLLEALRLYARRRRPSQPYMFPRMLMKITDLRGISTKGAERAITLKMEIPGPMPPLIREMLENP
Chain of FXR (Q96RI1 262-486, species assumed): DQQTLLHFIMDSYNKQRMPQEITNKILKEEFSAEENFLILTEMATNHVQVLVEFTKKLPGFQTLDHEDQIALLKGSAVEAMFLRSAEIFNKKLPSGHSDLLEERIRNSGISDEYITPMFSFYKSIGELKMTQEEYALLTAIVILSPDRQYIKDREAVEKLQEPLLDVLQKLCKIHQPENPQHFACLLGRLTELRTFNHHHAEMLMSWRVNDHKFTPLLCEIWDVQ
Chain of PPARβ (Q03181 211-439, species assumed): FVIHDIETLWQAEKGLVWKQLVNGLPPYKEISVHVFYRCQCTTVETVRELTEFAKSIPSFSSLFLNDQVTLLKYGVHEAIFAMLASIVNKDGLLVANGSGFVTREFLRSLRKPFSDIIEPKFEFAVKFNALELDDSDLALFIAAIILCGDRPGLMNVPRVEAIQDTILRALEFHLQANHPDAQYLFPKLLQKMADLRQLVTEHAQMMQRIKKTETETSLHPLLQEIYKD
Chain of TRβ (P10828 217-461): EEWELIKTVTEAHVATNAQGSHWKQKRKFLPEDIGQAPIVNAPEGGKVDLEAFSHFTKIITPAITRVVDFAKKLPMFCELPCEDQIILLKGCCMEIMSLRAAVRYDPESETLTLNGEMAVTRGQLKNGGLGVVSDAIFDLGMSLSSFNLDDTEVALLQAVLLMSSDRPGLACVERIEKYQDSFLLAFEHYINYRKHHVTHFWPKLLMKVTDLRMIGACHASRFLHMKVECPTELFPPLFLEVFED
Chain of RARβ (P10826 183-417, species assumed): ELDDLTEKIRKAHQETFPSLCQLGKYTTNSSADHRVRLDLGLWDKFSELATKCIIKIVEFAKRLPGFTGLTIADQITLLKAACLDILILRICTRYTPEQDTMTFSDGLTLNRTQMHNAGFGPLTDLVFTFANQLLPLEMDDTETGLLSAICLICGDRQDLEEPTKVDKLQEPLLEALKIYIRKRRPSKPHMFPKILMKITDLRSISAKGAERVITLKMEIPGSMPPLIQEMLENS
Chain of RARα (P10276 183-417, species assumed): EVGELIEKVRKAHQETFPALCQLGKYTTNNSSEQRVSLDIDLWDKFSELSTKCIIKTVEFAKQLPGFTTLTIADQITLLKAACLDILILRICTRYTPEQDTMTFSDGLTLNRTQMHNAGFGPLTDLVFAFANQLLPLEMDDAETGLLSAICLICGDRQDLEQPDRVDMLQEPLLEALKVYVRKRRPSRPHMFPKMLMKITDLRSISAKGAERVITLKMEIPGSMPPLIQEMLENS
Chain of PPARα (Q07869 239-466, species assumed): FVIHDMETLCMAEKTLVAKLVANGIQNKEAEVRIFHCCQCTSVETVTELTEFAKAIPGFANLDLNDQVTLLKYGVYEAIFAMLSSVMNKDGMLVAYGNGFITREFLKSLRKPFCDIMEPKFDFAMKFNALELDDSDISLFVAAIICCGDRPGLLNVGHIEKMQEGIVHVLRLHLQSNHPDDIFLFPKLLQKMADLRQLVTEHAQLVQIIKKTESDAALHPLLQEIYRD
Chain of PPARγ (P37231 238-503, species assumed): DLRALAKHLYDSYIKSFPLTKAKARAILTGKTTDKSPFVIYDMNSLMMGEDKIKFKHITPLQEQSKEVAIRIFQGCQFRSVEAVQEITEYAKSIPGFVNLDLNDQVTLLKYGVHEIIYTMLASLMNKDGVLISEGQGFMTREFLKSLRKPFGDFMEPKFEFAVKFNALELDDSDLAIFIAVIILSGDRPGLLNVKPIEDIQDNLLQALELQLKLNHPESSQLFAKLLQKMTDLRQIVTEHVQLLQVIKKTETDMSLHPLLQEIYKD
Chain of CAR (Q14994 109-352): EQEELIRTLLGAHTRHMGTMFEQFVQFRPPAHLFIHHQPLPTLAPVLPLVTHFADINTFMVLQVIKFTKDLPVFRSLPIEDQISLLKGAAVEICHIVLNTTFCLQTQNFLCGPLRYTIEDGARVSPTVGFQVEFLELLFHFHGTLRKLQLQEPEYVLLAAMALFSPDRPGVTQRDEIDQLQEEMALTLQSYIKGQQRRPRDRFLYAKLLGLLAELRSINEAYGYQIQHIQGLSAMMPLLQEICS
Chain of LXRβ (P55055 222-460): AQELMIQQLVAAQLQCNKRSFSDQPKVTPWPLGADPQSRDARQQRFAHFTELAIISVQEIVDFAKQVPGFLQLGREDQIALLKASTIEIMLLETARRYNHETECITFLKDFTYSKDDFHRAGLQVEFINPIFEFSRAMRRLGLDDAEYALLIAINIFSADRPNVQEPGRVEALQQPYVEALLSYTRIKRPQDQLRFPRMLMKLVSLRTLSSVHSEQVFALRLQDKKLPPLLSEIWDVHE
Chain of VDR (P11473 127-423, species assumed): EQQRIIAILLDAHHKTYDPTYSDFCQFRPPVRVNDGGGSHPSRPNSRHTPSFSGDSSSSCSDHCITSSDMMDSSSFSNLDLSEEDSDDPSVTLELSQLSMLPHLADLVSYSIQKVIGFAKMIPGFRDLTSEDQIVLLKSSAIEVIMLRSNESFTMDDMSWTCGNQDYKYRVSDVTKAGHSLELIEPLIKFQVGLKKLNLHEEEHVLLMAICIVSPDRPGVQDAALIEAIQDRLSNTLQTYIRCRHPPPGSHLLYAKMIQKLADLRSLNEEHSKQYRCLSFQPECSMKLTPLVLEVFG
Chain of LXRα (Q13133 209-447): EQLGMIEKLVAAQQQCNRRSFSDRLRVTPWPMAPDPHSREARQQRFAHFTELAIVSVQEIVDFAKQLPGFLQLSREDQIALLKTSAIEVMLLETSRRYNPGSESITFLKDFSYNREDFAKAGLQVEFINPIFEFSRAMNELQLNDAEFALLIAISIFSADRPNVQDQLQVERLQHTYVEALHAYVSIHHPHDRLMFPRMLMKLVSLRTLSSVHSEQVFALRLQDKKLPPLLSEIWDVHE
Chain of RORβ (Q92753 222-460): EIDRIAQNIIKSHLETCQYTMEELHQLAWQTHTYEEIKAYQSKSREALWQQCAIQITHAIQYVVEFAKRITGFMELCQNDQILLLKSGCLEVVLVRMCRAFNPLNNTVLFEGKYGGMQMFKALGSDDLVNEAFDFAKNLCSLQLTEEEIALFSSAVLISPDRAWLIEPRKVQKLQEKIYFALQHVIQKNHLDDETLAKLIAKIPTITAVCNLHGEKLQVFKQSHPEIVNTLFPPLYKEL
Chain of RORα (P35398 272-510): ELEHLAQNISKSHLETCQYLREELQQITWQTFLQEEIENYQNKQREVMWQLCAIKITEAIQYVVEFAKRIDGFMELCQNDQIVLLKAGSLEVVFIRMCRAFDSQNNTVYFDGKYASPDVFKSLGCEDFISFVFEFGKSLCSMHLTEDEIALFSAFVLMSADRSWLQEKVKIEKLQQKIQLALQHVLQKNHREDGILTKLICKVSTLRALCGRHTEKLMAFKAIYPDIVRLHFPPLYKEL
Chain of PXR (O75469 146-433, species assumed): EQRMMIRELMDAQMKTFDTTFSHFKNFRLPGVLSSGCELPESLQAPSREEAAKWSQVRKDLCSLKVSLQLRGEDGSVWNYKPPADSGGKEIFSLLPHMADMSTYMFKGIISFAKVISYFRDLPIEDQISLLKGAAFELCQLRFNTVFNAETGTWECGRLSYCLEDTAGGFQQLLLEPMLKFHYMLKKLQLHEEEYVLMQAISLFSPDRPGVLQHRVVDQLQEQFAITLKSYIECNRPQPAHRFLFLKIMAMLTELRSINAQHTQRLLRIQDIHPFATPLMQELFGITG

EC50 (CAR; agonist mode): > 10 µM
IC50 (CAR; [3]): > 10 µM
EC50 (FXR; agonist mode): > 10 µM
IC50 (FXR; [3]): > 10 µM
EC50 (LXRα; agonist mode): > 10 µM
IC50 (LXRα; [3]): > 10 µM
EC50 (LXRβ; agonist mode): > 10 µM
IC50 (LXRβ; [3]): > 10 µM
EC50 (PPARα; agonist mode): > 10 µM
IC50 (PPARα; [3]): > 10 µM
EC50 (PPARβ; agonist mode): > 10 µM
IC50 (PPARβ; [3]): > 10 µM
IC50 (PPARγ; PPARγ, antagonist mode, reference agonist at EC80): > 10 µM
EC50 (PPARγ; read-out: Agonist Mode EC50): 5.1 µM
EC50 (PXR): 8.2 µM
EC50 (RARα; agonist mode): > 10 µM
IC50 (RARα; [3]): > 10 µM
EC50 (RARβ; agonist mode): > 10 µM
IC50 (RARβ; [3]): > 10 µM
EC50 (RARγ; agonist mode): > 10 µM
IC50 (RARγ; [3]): > 10 µM
IC50 (RORα): > 10 µM
IC50 (RORβ): > 10 µM
EC50 (RXRα; agonist mode): > 10 µM
IC50 (RXRα; [3]): > 10 µM
EC50 (TRα; agonist mode): > 10 µM
IC50 (TRα; [3]): 16 µM
EC50 (TRβ; agonist mode): > 10 µM
IC50 (TRβ; [3]): > 10 µM
EC50 (VDR; agonist mode): > 10 µM
IC50 (VDR; [3]): > 10 µM
Structure (SMILES): O=C(O)[C@@H]1CC=C(c2nn(C(=O)c3c(Cl)cccc3C3(C(F)(F)F)CC3)c3c2CC[C@@H](C(=O)N2CCC4(COC4)C2)C3)CC1 [Test Compound]
expression of BclxL in murine thymus [1]: dose-dependent decrease in the expression of BclxL in murine thymus
total joint circumference [2]: dose-dependent decrease in total joint circumference
